Source: patent US9512152B2, “Phospholipid compound containing unsaturated fatty acid derivative having cyclopropane ring” (NISHIZAKI BIOINFORMATION RESEARCH INSTITUTE, priority 2013, dated 2016)

Legend:
[1] = test system: Akt in 3T3L1-GLUT4myc adipocytes; test: Akt activation, Western blotting of phospho-Akt (Thr308, Ser473); format: cell-based; conditions: diDCP-LA-PE 1 μM, FIG. 4
Procedure: 3T3L1-GLUT4myc fibroblast strain expressing GLUT4myc was used. The cells are constructed by inserting human c-MYC epitope (14 amino acids) into the first ectodomain. The cells were cultured in Dulbecco's Modified Eagles Medium (DMEM) added with 10% (v/v) bovine serum, penicillin (final concentration, 100 U/ml) and streptomycin (final concentration, 0.1 mg/ml) in a humid environment under 5% CO2 and 95% air at 37° C. When the cells reached confluence (day 0), the medium was exchanged with DMEM added with 10% (v/v) fetal bovine serum (FBS), 1 μM dexamethasone, 0.5 mM 3-isobutyl-methyl-xanthine and 0.1 mg/ml insulin to allow for differentiation from fibroblast into adipocyte. The medium was exchanged with DMEM added with 10% (v/v) FBS on day 3, day 7 and day 11. On day 14, the cells were used for the experiment. […]
For Western blotting, the protein was separated by SDS-polyacrylamide gel electrophoresis (SDS-PAGE), and transferred onto polyvinylidene difluoride membranes. […] The immunoreactivity was detected using ECL kit (GE Healthcare, Piscataway, N.J., USA), and visualized using a chemical luminescence detection system (chemiluminescence detection system; GE Healthcare). The protein concentration of each sample was measured using BCA protein assay kit (Thermo Fisher Scientific, Waltham, Mass., USA).

[2] = test system: 3T3L1-GLUT4myc adipocytes; test: Analysis of GLUT4 trafficking (cellular membrane transport of GLUT4); format: cell-based; conditions: 20 min
Procedure: 3T3L1-GLUT4myc fibroblast strain expressing GLUT4myc was used. The cells are constructed by inserting human c-MYC epitope (14 amino acids) into the first ectodomain. The cells were cultured in Dulbecco's Modified Eagles Medium (DMEM) added with 10% (v/v) bovine serum, penicillin (final concentration, 100 U/ml) and streptomycin (final concentration, 0.1 mg/ml) in a humid environment under 5% CO2 and 95% air at 37° C. When the cells reached confluence (day 0), the medium was exchanged with DMEM added with 10% (v/v) fetal bovine serum (FBS), 1 μM dexamethasone, 0.5 mM 3-isobutyl-methyl-xanthine and 0.1 mg/ml insulin to allow for differentiation from fibroblast into adipocyte. The medium was exchanged with DMEM added with 10% (v/v) FBS on day 3, day 7 and day 11. On day 14, the cells were used for the experiment.
3T3L1-GLUT4myc adipocytes were incubated in Krebs-Ringer-HEPES buffer [136 mM NaCl, 4.7 mM KCl, 1.25 mM CaCl2, 1.25 mM MgSO4 and 20 mM HEPES, pH 7.5] containing 0.2% (w/v) bovine serum albumin and added with 10 mM glucose at 37° C. for 1 hr. The cells were incubated in the presence or absence of insulin, phospholipid or a derivative thereof for 20 min. Then, the cells were homogenized by sonication in an ice-cooled mitochondria buffer containing 1% (v/v) protease inhibitor cocktail [210 mM mannitol, 70 mM sucrose, and 1 mM ethylenediaminetetraacetic acid (EDTA), 10 mM HEPES, pH 7.5]. Sequentially, the homogenate was centrifuged at 4° C. for 5 min at 3,000 rpm. The supernatant was further centrifuged at 4° C. for 15 min at 11,000 rpm. […] The protein concentration of each fraction was measured using BCA protein assay kit (Thermo Fisher Scientific, Waltham, Mass., USA). […] The immunoreactivity was detected using ECL kit (Invitrogen), and visualized using a chemical luminescence detection system (chemiluminescence detection system; GE Healthcare, Piscataway, N.J., USA). The signal density was measured using an image analysis software (Image Gauge software; GE Healthcare).

[3] = test system: STZ-treated C57BL/6J mouse; test: Oral glucose tolerance test in streptozotocin-treated type 1 diabetes model mouse; format: in vivo; conditions: oral 1 mg/kg, 4 consecutive days before OGTT and 30 min before glucose, FIG. 11
Procedure: C57BL/6J mouse (male, 8-week-old) (Japan SLC Inc.; Shizuoka, Japan) was used. Streptozotocin (STZ; 250 mg/kg) or saline as a control was injected intraperitoneally. After 4 days from the injection, an oral glucose tolerance test (OGTT) was performed.

[4] = test system: 3T3L1-GLUT4myc adipocytes having a knocked-down insulin receptor; test: GLUT4 trafficking in adipocytes with knocked-down insulin receptor; format: cell-based; conditions: 1 μM, 20 min, absence of insulin, FIG. 12
Procedure: 3T3L1-GLUT4myc adipocytes were incubated in Krebs-Ringer-HEPES buffer [136 mM NaCl, 4.7 mM KCl, 1.25 mM CaCl2, 1.25 mM MgSO4 and 20 mM HEPES, pH 7.5] containing 0.2% (w/v) bovine serum albumin and added with 10 mM glucose at 37° C. for 1 hr. The cells were incubated in the presence or absence of insulin, phospholipid or a derivative thereof for 20 min. Then, the cells were homogenized by sonication in an ice-cooled mitochondria buffer containing 1% (v/v) protease inhibitor cocktail [210 mM mannitol, 70 mM sucrose, and 1 mM ethylenediaminetetraacetic acid (EDTA), 10 mM HEPES, pH 7.5]. Sequentially, the homogenate was centrifuged at 4° C. for 5 min at 3,000 rpm. The supernatant was further centrifuged at 4° C. for 15 min at 11,000 rpm. The recovered supernatant was ultracentrifuged at 4° C. for 60 min at 100,000 g, and separated into a cytoplasm fraction and a cellular membrane fraction. […] The protein concentration of each fraction was measured using BCA protein assay kit (Thermo Fisher Scientific, Waltham, Mass., USA). […] The immunoreactivity was detected using ECL kit (Invitrogen), and visualized using a chemical luminescence detection system (chemiluminescence detection system; GE Healthcare, Piscataway, N.J., USA). The signal density was measured using an image analysis software (Image Gauge software; GE Healthcare). […]

Structure (SMILES): CCCCCC1CC1CC1CC1CCCCCCCC(=O)OC[C@H](COP(=O)(O)OCCN)OC(=O)CCCCCCCC1CC1CC1CC1CCCCC (some centres unmarked) [diDCP-LA-PE, 1,2-o-bis-[8-{2-(2-pentyl-cyclopropylmethyl)-cyclopropyl}-octanoyl]-sn-glycero-3-phosphatidylethanolamine]
- Akt activation (phosphorylation of Thr308 and Ser473 relative to total Akt) [1]: has an action to activate Akt
- Promotion of cellular membrane transport of GLUT4 ([2]; 1 μM, FIG. 7): an action to promote cellular membrane transport of GLUT4
- Concentration dependence of cellular membrane transport of GLUT4 ([2]; given concentrations, FIG. 8): promotes cellular membrane transport of GLUT4 in a concentration-dependent manner
- Suppression of increase in blood glucose [3]: significantly suppresses an increase in the blood glucose
- Transfer of GLUT4 to cellular membrane, insulin receptor knock-down [4]: can promote transfer of GLUT4 to a cellular membrane in an insulin receptor independent manner
